Among the data in ChEMBL document CHEMBL1201862, “PubChem BioAssay data set” (2004) are EC50, IC50 and AC50 values, retold here.

Test [1] has as its target T1, Zinc finger protein mex-5 (Caenorhabditis elegans, UniProt Q9XUB2).
T1 sequence (Q9XUB2 whole entry): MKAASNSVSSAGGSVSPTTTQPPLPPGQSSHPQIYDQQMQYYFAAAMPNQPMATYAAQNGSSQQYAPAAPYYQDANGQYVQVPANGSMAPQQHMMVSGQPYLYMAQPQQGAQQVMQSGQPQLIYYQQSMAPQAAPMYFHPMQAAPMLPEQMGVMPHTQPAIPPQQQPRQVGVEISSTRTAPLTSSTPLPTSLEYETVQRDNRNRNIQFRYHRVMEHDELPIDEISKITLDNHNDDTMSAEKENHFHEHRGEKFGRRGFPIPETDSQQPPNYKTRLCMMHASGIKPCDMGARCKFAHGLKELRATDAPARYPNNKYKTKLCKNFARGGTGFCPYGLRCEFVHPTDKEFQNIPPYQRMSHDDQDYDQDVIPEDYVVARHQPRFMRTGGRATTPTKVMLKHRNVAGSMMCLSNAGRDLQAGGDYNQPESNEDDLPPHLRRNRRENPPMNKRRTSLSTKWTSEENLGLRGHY
Description: potency of MEX-5 RNA-binding blockers – biochemical, C. elegans, fluorescence polarization, dose response (AID 1960).

Test [2] has as its target T2, RNA-binding protein pos-1 (Caenorhabditis elegans, UniProt G5EF15).
T2 sequence (G5EF15 whole entry): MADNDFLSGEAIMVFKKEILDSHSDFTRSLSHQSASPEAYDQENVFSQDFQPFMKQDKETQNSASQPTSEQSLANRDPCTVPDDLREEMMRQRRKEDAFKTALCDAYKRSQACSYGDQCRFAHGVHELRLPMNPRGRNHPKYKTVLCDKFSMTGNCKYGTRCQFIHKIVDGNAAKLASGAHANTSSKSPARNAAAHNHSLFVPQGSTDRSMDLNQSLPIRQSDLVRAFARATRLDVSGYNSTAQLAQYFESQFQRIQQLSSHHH
Description: disruptors of C. elegans POS-1 RNA interaction – biochemical, fluorescence polarization, dose response (AID 1964).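 Further: purified POS-1 fused to maltose binding protein made in E. coli; potency of compounds blocking POS-1 binding to fluorescent RNA.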

The target of test [3] is T3, SUMO-activating enzyme (Homo sapiens, UniProt Q9UBT2). Put plainly: blockers of UBC9-mediated SUMO conjugation – biochemical, AlphaScreen, SUMOylation inhibitor project, confirmation (AID 2018). The class given is functional.
The target in test [4] is Induced myeloid leukemia cell differentiation protein Mcl-1 (Homo sapiens, UniProt Q07820). The class given is functional.
The target of test [5] is T3, SUMO-activating enzyme. Put plainly: blockers of SAE1/SAE2–UBC9 SUMO transfer – biochemical, HTRF, uHTS, primary screen (AID 2006). The class given is protein-complex assay.
A further test addresses T4, Bcl-2-related protein A1 (Mus musculus, UniProt Q07440).
T4 sequence (Q07440 whole entry): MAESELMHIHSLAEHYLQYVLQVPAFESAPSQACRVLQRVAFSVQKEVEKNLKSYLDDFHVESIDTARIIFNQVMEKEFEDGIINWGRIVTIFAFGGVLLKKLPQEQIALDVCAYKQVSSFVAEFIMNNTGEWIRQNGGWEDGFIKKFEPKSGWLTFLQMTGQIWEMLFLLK
The class given is functional.

The target in test [6] is T5, Heat shock factor protein 1 (Mus musculus, UniProt P38532).
T5 sequence (P38532 whole entry): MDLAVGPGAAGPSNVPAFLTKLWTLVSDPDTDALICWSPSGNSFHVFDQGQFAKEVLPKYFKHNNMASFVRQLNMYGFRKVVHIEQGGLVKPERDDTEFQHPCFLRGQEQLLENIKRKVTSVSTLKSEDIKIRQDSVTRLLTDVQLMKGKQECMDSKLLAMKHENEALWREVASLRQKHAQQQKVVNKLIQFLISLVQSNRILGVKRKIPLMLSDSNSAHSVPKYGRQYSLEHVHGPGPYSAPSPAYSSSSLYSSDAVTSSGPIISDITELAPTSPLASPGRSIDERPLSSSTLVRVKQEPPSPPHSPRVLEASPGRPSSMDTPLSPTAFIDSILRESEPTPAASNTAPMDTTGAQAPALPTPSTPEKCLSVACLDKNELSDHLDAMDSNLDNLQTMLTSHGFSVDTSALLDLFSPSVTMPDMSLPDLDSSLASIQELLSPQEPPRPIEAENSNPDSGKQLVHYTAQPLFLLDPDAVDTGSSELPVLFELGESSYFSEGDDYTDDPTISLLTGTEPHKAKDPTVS
Put plainly: enhancement of HSF1-driven luciferase signal – cell-based, NIH3T3, luminescence, dose retest, confirmation (AID 435004).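 Further: stress induced by proteasome inhibitor MG132 added 30 min after compound; luciferase reporter driven by HSF1 response element in NIH3T3 cells; actives raise luminescence as potentiators of the MG132 stress response.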 In kind it is functional.

Test [7] addresses T6, Ubiquitin-conjugating enzyme E2 N (Homo sapiens, UniProt P61088).
T6 sequence (P61088 whole entry): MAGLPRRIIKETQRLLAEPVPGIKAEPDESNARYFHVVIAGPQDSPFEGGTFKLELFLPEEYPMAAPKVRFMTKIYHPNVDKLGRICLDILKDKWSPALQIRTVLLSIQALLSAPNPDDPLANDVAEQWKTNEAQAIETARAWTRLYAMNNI
The class given is functional.

Test [8] concerns the target T6, Ubiquitin-conjugating enzyme E2 N. The class given is functional. The source holds these as a separate data set.
The next test addresses Cytochrome P450 2D6 (Homo sapiens, UniProt P10635).
For a further test, the target named is Cytochrome P450 3A4 (Homo sapiens, UniProt P08684).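 Further: CYP3A4 tested as one member of a cytochrome P450 panel screen.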
The target in test [9] is T7, Short transient receptor potential channel 4 (Mus musculus, UniProt Q9QUQ5).
T7 sequence (Q9QUQ5 whole entry): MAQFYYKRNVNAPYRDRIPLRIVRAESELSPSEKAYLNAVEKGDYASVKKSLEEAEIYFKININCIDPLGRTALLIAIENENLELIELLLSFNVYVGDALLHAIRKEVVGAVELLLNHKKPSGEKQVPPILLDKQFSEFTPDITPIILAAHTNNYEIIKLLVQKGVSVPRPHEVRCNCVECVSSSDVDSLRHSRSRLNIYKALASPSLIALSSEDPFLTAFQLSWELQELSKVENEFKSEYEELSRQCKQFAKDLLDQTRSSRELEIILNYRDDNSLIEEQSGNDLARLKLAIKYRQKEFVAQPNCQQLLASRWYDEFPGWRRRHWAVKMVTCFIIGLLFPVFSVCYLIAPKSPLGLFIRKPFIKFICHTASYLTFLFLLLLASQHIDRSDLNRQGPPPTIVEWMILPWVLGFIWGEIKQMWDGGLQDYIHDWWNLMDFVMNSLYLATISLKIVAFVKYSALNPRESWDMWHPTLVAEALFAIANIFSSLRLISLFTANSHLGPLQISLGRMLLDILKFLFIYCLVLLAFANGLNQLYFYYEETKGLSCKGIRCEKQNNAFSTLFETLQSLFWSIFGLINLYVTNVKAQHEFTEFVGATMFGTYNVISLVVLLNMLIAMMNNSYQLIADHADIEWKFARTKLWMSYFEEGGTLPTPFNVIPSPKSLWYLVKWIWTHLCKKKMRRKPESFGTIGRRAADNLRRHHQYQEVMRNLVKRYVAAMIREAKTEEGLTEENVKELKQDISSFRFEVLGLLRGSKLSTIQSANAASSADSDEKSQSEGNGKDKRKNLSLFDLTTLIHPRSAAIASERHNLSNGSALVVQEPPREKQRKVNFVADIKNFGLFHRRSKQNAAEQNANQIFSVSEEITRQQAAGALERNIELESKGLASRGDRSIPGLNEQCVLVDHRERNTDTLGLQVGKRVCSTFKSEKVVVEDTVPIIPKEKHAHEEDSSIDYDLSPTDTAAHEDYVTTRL
Description: block of DAMGO-driven TRPC4 calcium entry – cell-based, HEK293 TRPC4/mu-opioid, Fluo-4 calcium, dose response (AID 434942).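 Further: potency of inhibitors blocking the TRPC4 calcium response.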 The class given is functional.

The target in test [10] is T8, Calpain-2 catalytic subunit (Sus scrofa, UniProt P43367).
T8 sequence (P43367 whole entry): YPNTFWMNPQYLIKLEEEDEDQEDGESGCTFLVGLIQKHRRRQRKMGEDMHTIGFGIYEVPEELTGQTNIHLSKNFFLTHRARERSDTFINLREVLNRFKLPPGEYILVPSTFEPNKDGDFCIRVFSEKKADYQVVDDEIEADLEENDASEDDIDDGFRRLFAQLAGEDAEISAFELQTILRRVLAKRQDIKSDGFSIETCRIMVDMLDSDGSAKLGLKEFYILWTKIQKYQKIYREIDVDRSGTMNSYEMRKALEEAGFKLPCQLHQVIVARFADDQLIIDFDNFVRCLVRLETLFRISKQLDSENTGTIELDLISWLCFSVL
Put plainly: m-calpain protease blockers, concentration series – biochemical, fluorogenic peptide substrate, dose response (AID 1420). The class given is functional.

Test [11] deals with T9, Type-1 angiotensin II receptor (Homo sapiens, UniProt P30556).
T9 sequence (P30556 whole entry): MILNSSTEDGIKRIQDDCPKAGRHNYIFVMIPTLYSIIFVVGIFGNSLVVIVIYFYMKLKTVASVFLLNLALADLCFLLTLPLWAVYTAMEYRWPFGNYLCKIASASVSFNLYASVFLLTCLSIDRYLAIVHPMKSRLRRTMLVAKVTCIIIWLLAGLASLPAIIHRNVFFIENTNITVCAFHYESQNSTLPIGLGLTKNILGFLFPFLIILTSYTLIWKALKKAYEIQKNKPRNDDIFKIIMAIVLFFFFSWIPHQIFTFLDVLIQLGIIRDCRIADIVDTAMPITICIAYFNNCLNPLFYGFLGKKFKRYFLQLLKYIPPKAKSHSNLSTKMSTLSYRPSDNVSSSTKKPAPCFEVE
Put plainly: antagonism of angiotensin II type 1 receptor – cell-based, uHTS hits, selectivity assay for APJ receptor antagonist project, dose response (AID 463214).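 Further: antagonist potency against angiotensin II stimulated AT1 response.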 In kind it is functional.

The target in a further test is Beta-galactosidase (Escherichia coli, UniProt Q8VNN2). Description: PubChem AID 485352. The class given is functional.
Another test has as its system HEK293. Put plainly: HEK293T cell viability loss, resazurin readout – resazurin fluorescence, cytotoxicity control for NF-kB activator project, SAR follow-up (AID 493251). In kind it is functional, cell-based. The note with it: Homo sapiens.

Calls of active or inactive are those of the source.

Sequence of Beta-galactosidase (Q8VNN2 whole entry): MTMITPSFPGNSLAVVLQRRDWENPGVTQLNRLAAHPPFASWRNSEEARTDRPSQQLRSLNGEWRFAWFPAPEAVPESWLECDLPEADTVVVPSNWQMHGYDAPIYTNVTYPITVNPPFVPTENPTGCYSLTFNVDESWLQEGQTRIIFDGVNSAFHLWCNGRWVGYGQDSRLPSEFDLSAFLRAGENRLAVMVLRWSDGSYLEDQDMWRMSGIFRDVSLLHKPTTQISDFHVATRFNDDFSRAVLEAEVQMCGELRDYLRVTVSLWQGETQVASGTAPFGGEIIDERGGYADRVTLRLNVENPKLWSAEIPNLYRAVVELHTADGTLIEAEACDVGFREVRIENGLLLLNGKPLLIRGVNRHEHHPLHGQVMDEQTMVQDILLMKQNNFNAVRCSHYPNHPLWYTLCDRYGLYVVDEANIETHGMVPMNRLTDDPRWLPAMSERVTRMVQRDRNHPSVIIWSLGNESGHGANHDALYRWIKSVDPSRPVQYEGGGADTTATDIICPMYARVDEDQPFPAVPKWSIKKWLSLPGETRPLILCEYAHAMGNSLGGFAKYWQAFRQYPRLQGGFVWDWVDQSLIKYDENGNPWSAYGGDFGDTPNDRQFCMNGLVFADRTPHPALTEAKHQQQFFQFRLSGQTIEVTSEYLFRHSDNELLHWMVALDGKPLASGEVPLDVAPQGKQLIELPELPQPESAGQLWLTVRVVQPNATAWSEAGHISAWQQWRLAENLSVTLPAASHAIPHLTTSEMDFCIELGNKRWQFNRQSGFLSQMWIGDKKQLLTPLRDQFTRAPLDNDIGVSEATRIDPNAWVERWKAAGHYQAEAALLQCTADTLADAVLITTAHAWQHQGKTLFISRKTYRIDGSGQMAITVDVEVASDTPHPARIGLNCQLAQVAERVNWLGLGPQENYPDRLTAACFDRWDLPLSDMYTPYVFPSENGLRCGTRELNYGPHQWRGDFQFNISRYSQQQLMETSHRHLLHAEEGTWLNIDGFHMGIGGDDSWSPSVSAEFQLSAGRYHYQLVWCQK
T3 sequence (Q9UBE0 whole entry): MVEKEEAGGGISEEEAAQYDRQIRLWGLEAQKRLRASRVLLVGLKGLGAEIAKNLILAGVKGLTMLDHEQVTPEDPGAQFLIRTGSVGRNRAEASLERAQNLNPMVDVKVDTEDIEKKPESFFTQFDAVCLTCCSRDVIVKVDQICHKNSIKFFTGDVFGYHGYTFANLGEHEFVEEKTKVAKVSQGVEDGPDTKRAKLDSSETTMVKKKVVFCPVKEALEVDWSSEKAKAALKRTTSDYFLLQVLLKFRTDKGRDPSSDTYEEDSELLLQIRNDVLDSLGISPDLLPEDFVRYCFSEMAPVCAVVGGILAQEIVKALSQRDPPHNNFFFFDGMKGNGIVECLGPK
T3 sequence (Q9UBT2 whole entry): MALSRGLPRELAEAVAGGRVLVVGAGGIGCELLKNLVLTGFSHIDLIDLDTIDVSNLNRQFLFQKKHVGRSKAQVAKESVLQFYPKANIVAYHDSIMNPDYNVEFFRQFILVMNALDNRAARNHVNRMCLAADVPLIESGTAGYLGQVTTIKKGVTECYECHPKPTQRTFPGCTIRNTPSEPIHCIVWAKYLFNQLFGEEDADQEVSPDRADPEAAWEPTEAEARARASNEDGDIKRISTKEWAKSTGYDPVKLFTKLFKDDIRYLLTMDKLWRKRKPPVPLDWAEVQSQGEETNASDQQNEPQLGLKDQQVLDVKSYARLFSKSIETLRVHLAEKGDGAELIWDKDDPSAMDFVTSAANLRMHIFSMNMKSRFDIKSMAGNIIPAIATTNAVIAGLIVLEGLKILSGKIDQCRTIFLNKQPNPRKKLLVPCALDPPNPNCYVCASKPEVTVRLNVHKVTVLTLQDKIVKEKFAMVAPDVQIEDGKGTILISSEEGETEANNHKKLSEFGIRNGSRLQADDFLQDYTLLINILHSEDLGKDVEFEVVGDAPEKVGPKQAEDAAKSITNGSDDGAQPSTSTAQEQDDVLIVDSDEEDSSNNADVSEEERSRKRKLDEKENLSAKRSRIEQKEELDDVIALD
Sequence of Induced myeloid leukemia cell differentiation protein Mcl-1 (Q07820 whole entry): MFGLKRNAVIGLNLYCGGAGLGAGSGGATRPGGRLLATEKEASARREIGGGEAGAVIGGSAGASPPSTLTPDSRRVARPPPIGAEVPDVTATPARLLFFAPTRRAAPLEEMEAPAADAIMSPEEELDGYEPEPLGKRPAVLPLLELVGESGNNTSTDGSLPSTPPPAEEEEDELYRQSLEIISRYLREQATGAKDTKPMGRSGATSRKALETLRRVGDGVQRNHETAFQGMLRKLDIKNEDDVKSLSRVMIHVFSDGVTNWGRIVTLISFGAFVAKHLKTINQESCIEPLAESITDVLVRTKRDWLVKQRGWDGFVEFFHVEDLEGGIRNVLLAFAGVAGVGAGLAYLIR
Sequence of Cytochrome P450 3A4 (P08684 whole entry): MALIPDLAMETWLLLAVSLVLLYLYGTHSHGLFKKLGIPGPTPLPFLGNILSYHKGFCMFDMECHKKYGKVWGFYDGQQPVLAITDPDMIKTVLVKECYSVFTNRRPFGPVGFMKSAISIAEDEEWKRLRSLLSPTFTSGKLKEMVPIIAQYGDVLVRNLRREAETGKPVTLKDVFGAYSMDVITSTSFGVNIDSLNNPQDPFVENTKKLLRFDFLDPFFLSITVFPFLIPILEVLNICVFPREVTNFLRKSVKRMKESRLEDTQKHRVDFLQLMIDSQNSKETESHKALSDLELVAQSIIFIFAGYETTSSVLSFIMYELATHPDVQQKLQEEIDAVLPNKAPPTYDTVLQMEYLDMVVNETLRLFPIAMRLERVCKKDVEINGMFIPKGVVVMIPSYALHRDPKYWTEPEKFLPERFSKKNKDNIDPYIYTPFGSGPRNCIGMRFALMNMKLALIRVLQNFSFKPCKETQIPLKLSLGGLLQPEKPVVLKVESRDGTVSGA
Sequence of Cytochrome P450 2D6 (P10635 whole entry): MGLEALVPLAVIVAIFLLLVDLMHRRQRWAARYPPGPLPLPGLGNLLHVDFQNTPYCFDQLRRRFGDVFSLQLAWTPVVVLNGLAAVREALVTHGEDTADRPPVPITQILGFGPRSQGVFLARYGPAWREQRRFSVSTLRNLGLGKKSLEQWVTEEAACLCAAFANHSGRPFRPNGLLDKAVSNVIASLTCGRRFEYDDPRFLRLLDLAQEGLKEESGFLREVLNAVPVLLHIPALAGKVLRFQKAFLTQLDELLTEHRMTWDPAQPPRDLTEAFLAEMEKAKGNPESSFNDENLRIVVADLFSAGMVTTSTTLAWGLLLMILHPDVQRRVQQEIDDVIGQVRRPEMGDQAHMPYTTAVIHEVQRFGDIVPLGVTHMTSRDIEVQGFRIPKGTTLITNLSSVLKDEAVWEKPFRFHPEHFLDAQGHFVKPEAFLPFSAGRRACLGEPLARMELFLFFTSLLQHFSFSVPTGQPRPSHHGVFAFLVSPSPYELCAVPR

As for `CC1=C(C#N)C(=O)NC(=O)/C1=C/c1ccc(-c2ccc(S(N)(=O)=O)cc2)o1`, the concentration for a half-maximal effect (EC50) is > 300 µM (not active) in test [1] and > 300 µM (inconclusive) in test [2]. In addition, the IC50 on SUMO-activating enzyme [3] was 6.48 µM (active); in test [4], 1.59 µM (active); on SUMO-activating enzyme [5], 25.7 µM (active).
As for `O=C(CSc1cc(Cl)ccc1Cl)NCC(=O)Nc1ccc(F)c(F)c1F`, the IC50 was > 20 µM (inactive) on Bcl-2-related protein A1, 15.6 µM (active) in [7] and 18.8 µM (active) in test [8]. The EC50 in [6] was > 260 µM (inactive).
For `CC(C)(C)c1cc2cccnc2n1Cc1ccccc1`, the AC50 was 0.501 µM (inconclusive) at Cytochrome P450 2D6 and 15.8 µM (inconclusive) at Cytochrome P450 3A4. Besides, the concentration for a half-maximal effect (EC50) in test [9] was 2.11 µM (active).
Take `COc1cccc(O)c1CN1CCCC(C(=O)c2cccc(C(F)(F)F)c2)C1` (stereo not given): the IC50 in [10] is recorded as 11.5 µM (not active). Further, in test [9], the EC50 is 2.11 µM (active).
Turning to `CNC(=O)c1ccsc1NC(=O)C1CCCN1S(=O)(=O)c1cccs1` (stereo not given), the IC50 on Bcl-2-related protein A1 was > 20 µM (inactive); in test [7], 19.3 µM (active); in test [8] it was > 20 µM (inactive).
For `CC(=O)Nc1ccc(NC(=O)CCC(=O)OCC(=O)c2cccc([N+](=O)[O-])c2)cc1`, the IC50 in test [11] was 26 µM (not active). In addition, the EC50 on Beta-galactosidase is > 40 µM (inactive).
`O=C(Nc1nnc(SCc2ccc(F)cc2)s1)c1cnccn1`: in test [11], the IC50 is > 40 µM (not active). Further, on Beta-galactosidase, the EC50 is > 40 µM (inactive).
As to `CC(C)(C)c1ccc(-c2noc(CCC(=O)O)n2)cc1`, in the test on HEK293, the IC50 is > 80 µM (inactive).
As for `CCOC(=O)c1c(C)c2c(n1C)CCC/C2=N\O`, the figures for the IC50 (at Bcl-2-related protein A1; in [7]; in [8]) were > 20 µM (inactive), 19.5 µM (active) and 8.75 µM (active), respectively.
